Test results: patent US8211662B2, “Nitroreductase enzymatic substrates” (Biomerieux, priority 2007, dated 2012)

Assays:
[1] = test system: Salmonella typhimurium NCTC 74; assay: Nitroreductase detection on Columbia agar, colonies read under UV; assay type: cell-based; set-up: key to Intensity of fluorescence, Salmonella typhimurium NCTC 74 / F: fluorescence (intensity), Salmonella typhimurium NCTC 74 / Intensity of the fluorescence, Salmonella typhimurium NCTC 74: − = no fluorescence detected; +/− = weak fluorescence; + = medium fluorescence; ++ = strong fluorescence; conditions: Table 3; 100 mg/l in Columbia agar, 24 h 37° C., UV 360-365 nm
Description: (§1) A mass of 40 mg of each substrate was dissolved in 4 ml of dimethylformamide (DMF). This solution was entirely taken up in 400 ml of Columbia agar autoclaved beforehand and kept molten at 50° C. The final concentration for each substrate was 100 mg/l.
(§2) Each of the media was distributed into Petri dishes 90 mm in diameter, in a proportion of 20 ml per dish.
(§3) 18 microorganism strains derived from collections and belonging to various species of bacteria and of yeasts were inoculated onto these media by semi-quantitative isolation of 10 μl of a suspension at 0.5 McFarland diluted to 1/20. The media were incubated for 24 hours at 37° C., then the colonies formed were examined visually under UV illumination at 360-365 nm.

[2] = test system: MRSA NCTC 11939; assay: as above; assay type: cell-based, Staphylococcus aureus; set-up: key: − = no fluorescence detected; +/− = weak fluorescence; + = medium fluorescence; ++ = strong fluorescence; conditions: Table 3; 100 mg/l in Columbia agar, 24 h 37° C., UV 360-365 nm
Description: as §1, §2, §3

[3] = test system: Morganella morganii 462403 (wild); assay: as above; assay type: cell-based; set-up: key to Intensity of fluorescence, Morganella morganii 462403 / F: fluorescence (intensity), Morganella morganii 462403 (wild) / Intensity of the fluorescence, Morganella morganii 462403 (wild): − = no fluorescence detected; +/− = weak fluorescence; + = medium fluorescence; ++ = strong fluorescence; conditions: Table 3; 100 mg/l in Columbia agar, 24 h 37° C., UV 360-365 nm
Description: as §1, §2, §3

[4] = test system: Staphylococcus epidermidis NCTC 11047; assay: as above; assay type: cell-based; set-up: key: − = no fluorescence detected; +/− = weak fluorescence; + = medium fluorescence; ++ = strong fluorescence; conditions: Table 3; 100 mg/l in Columbia agar, 24 h 37° C., UV 360-365 nm
Description: as §1, §2, §3

[5] = test system: Bacillus subtilis NCTC 9372; assay: as above; assay type: cell-based; set-up: key: − = no fluorescence detected; +/− = weak fluorescence; + = medium fluorescence; ++ = strong fluorescence; conditions: Table 3; 100 mg/l in Columbia agar, 24 h 37° C., UV 360-365 nm
Description: as §1, §2, §3

[6] = test system: Enterobacter cloacae NCTC 11936; assay: as above; assay type: cell-based; set-up: key: − = no fluorescence detected; +/− = weak fluorescence; + = medium fluorescence; ++ = strong fluorescence; conditions: Table 3; 100 mg/l in Columbia agar, 24 h 37° C., UV 360-365 nm
Description: as §1, §2, §3

[7] = test system: Listeria monocytogenes NCTC 11994; assay: as above; assay type: cell-based; set-up: key: − = no fluorescence detected; +/− = weak fluorescence; + = medium fluorescence; ++ = strong fluorescence; conditions: Table 3; 100 mg/l in Columbia agar, 24 h 37° C., UV 360-365 nm
Description: as §1, §2, §3

[8] = test system: Staphylococcus aureus NCTC 6571; assay: as above; assay type: cell-based; set-up: key: − = no fluorescence detected; +/− = weak fluorescence; + = medium fluorescence; ++ = strong fluorescence; conditions: Table 3; 100 mg/l in Columbia agar, 24 h 37° C., UV 360-365 nm
Description: as §1, §2, §3

[9] = test system: Escherichia coli NCTC 10418; assay: as above; assay type: cell-based; set-up: key: − = no fluorescence detected; +/− = weak fluorescence; + = medium fluorescence; ++ = strong fluorescence; conditions: Table 3; 100 mg/l in Columbia agar, 24 h 37° C., UV 360-365 nm
Description: as §1, §2, §3

[10] = test system: Citrobacter freundii 46262 (wild); assay: as above; assay type: cell-based; set-up: key: − = no fluorescence detected; +/− = weak fluorescence; + = medium fluorescence; ++ = strong fluorescence; conditions: Table 3; 100 mg/l in Columbia agar, 24 h 37° C., UV 360-365 nm
Description: as §1, §2, §3

[11] = test system: Pseudomonas aeruginosa NCTC 10662; assay: as above; assay type: cell-based; set-up: key: − = no fluorescence detected; +/− = weak fluorescence; + = medium fluorescence; ++ = strong fluorescence; conditions: Table 3; 100 mg/l in Columbia agar, 24 h 37° C., UV 360-365 nm
Description: as §1, §2, §3

[12] = test system: Serratia marcescens NCTC 10211; assay: as above; assay type: cell-based; set-up: key: − = no fluorescence detected; +/− = weak fluorescence; + = medium fluorescence; ++ = strong fluorescence; conditions: Table 3; 100 mg/l in Columbia agar, 24 h 37° C., UV 360-365 nm
Description: as §1, §2, §3

[13] = test system: Streptococcus pyogenes NCTC 8306; assay: as above; assay type: cell-based; set-up: key: − = no fluorescence detected; +/− = weak fluorescence; + = medium fluorescence; ++ = strong fluorescence; conditions: Table 3; 100 mg/l in Columbia agar, 24 h 37° C., UV 360-365 nm
Description: as §1, §2, §3

[14] = test system: Providencia rettgeri NCTC 7475; assay: as above; assay type: cell-based; set-up: key: − = no fluorescence detected; +/− = weak fluorescence; + = medium fluorescence; ++ = strong fluorescence; conditions: Table 3; 100 mg/l in Columbia agar, 24 h 37° C., UV 360-365 nm
Description: as §1, §2, §3

[15] = test system: Candida albicans ATCC 90028; assay: as above; assay type: cell-based; set-up: key: − = no fluorescence detected; +/− = weak fluorescence; + = medium fluorescence; ++ = strong fluorescence; conditions: Table 3; 100 mg/l in Columbia agar, 24 h 37° C., UV 360-365 nm
Description: as §1, §2, §3

[16] = test system: Enterococcus faecalis NCTC 775; assay: as above; assay type: cell-based; set-up: key: − = no fluorescence detected; +/− = weak fluorescence; + = medium fluorescence; ++ = strong fluorescence; conditions: Table 3; 100 mg/l in Columbia agar, 24 h 37° C., UV 360-365 nm
Description: as §1, §2, §3

[17] = test system: Burkholderia cepacia 1222; assay: as above; assay type: cell-based; set-up: key: − = no fluorescence detected; +/− = weak fluorescence; + = medium fluorescence; ++ = strong fluorescence; conditions: Table 3; 100 mg/l in Columbia agar, 24 h 37° C., UV 360-365 nm
Description: as §1, §2, §3

[18] = test system: Enterococcus faecium NCTC 7171; assay: as above; assay type: cell-based; set-up: key: − = no fluorescence detected; +/− = weak fluorescence; + = medium fluorescence; ++ = strong fluorescence; conditions: Table 3; 100 mg/l in Columbia agar, 24 h 37° C., UV 360-365 nm
Description: as §1, §2, §3

[19] = test system: Yersinia enterocolitica NCTC 11176; assay: as above; assay type: cell-based; set-up: key: − = no fluorescence detected; +/− = weak fluorescence; + = medium fluorescence; ++ = strong fluorescence; conditions: Table 3; 100 mg/l in Columbia agar, 24 h 37° C., UV 360-365 nm
Description: as §1, §2, §3

[20] = test system: Candida glabrata NCPF 3943; assay: as above; assay type: cell-based; set-up: key to Intensity of fluorescence, Candida glabrata NCPF3943 / F: fluorescence (intensity), Candida glabrata NCPF 3943 / Intensity of the fluorescence, Candida glabrata NCPF 3943: − = no fluorescence detected; +/− = weak fluorescence; + = medium fluorescence; ++ = strong fluorescence; conditions: 100 mg/l in Columbia agar, 24 h 37° C.; for F: fluorescence (intensity), Candida glabrata NCPF 3943: Table 3, UV 360-365 nm
Description: as §1, §2, §3

SMILES | F: fluorescence (intensity), Salmonella typhimurium NCTC 74 [1] | F: fluorescence (intensity), MRSA NCTC 11939 [2] | F: fluorescence (intensity), Morganella morganii 462403 (wild) [3] | F: fluorescence (intensity), Staphylococcus epidermidis NCTC 11047 [4] | F: fluorescence (intensity), Bacillus subtilis NCTC 9372 [5] | F: fluorescence (intensity), Enterobacter cloacae NCTC 11936 [6] | F: fluorescence (intensity), Listeria monocyto genes NCTC 11994 [7] | F: fluorescence (intensity), Staphylococcus aureus NCTC 6571 [8] | F: fluorescence (intensity), Escherichia coli NCTC 10418 [9] | F: fluorescence (intensity), Citrobacter freundii 46262 (wild) [10] | F: fluorescence (intensity), Pseudomonas aeruginosa NCTC 10662 [11] | F: fluorescence (intensity), Serratia marcescens NCTC 10211 [12] | F: fluorescence (intensity), Streptococcus pyogenes NCTC 8306 [13] | F: fluorescence (intensity), Providencia rettgeri NCTC 7475 [14] | F: fluorescence (intensity), Candida albicans ATCC 90028 [15] | F: fluorescence (intensity), Enterococcus faecails NCTC 775 [16] | F: fluorescence (intensity), Burkholderia cepacia 1222 [17] | F: fluorescence (intensity), Enterococcus faecium NCTC 7171 [18] | F: fluorescence (intensity), Yersinia enterocolitica NCTC 11176 [19] | F: fluorescence (intensity), Candida glabrata NCPF 3943 [20] | also measured
O=[N+]([O-])c1ccccc1-c1nc2ccccc2o1 [Substrate 1] | ++ | ++ | ++ | + | − | ++ | ++ | ++ | ++ | ++ | ++ | ++ | + | ++ | − | ++ | ++ | + | ++ | − | G: growth, Candida glabrata NCPF 3943 [20]: No G
O=[N+]([O-])c1ccc(Cl)cc1-c1nc2ccccc2o1 [Substrate 4, 2-(2′-Nitro-5′-chlorophenyl)benzoxazole] |  |  |  |  |  |  |  |  |  |  |  |  |  |  |  |  |  |  |  |  | melting point: 130 to 132 °C
O=[N+]([O-])c1cc2c(cc1-c1nc3ccccc3o1)OCO2 [Substrate 5] | ++ | ++ | ++ | − | − | ++ | + | ++ | ++ | ++ | + | ++ | − | + | − | − | + | − | − | − | 
